System: isolated bovine brain capillaries (uptake of avidin-biotin complex)
Experiment: uptake of the avidin-biotin complex by isolated bovine brain capillaries in vitro
Format: cell-based
Conditions: 50 mM, 23° C., thirty minutes
Procedure: The in vitro studies were performed with isolated bovine brain capillaries used as an in vitro model of blood brain barrier (BBB) transport (16). […] The modest uptake of radioactivity in the presence of buffer alone represents uptake of [P^32 ] nucleotide or phosphate ion generated by capillary nuclease or phosphatase degradation of the antisense oligonucleotide. All incubations were performed at 23° C. for thirty minutes with brain capillary (about 100 μg protein per flask).

CO[C@H]1O[C@H](CO)[C@@H](O)[C@H](O)[C@@H]1O [α-methylmannoside]
inhibition of the uptake of the avidin-biotin complex by brain capillaries: no significant inhibition

From patent publication US6287792A, “Drug delivery of antisense oligonucleotides and peptides to tissues in vivo and to cells using avidin-biotin technology” (The Regents of the University of California, priority 1991, dated 2001)
